From PubChem BioAssay AID2060892 (Molecular Pharmacology Branch, DTP, NCI, 2025)

Tested on: HOP-62 complex spheroids with HUVEC/MSC, viability
Assay: Anticancer human tumor HOP-62 cell line growth inhibition [RAS];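 also: spheroids exposed to agents for seven days before readout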;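 as to viability, T/C: 100% = DMSO vehicle control viability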
Conditions: for IC50: curve of first compound; for viability, T/C: stronger effect = lower value; active = viability on the fitted dose curve at most 10% of control; inactive = the rest
Outline: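 Agents were tested in combination matrices in half-log decrements from a top concentration at or near clinical Cmax (10 microM if undetermined). Targets were multi-cell spheroids of tumour lines plus HUVEC and MSC stromal cells.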

Cc1nc(N2CCC3(CC2)COC(C)C3N)c(CO)nc1Sc1ccnc(N)c1Cl (centres undefined) + CCn1c(-c2cc(N3CCN(C)CC3)cnc2C(C)OC)c2c3cc(ccc31)-c1csc(n1)CC(NC(=O)C1CC1C)C(=O)N1CCCC(N1)C(=O)OCC(C)(C)C2
< 31.6 nM: IC50 (second compound 0.03 µM) | IC50 (second compound 0.0949 µM) | IC50 (second compound 0.3 µM)
inactive: viability, T/C (second compound 0.000949 µM, first compound 0.0316 µM) 110% | viability, T/C (second compound 0.000949 µM, first compound 0.1 µM) 98.2% | viability, T/C (second compound 0.000949 µM, first compound 0.316 µM) 50.6% | viability, T/C (second compound 0.000949 µM, first compound 1 µM) 63.7% | viability, T/C (second compound 0.000949 µM, first compound 3.16 µM) 56.7% | viability, T/C (second compound 0.000949 µM, first compound 10 µM) 21.8% | viability, T/C (second compound 0.003 µM, first compound 0.0316 µM) 83.8% | viability, T/C (second compound 0.003 µM, first compound 0.1 µM) 66.5% | viability, T/C (second compound 0.003 µM, first compound 0.316 µM) 47.2% | viability, T/C (second compound 0.003 µM, first compound 1 µM) 45.6% | viability, T/C (second compound 0.003 µM, first compound 3.16 µM) 33.1% | viability, T/C (second compound 0.003 µM, first compound 10 µM) 18.4% | viability, T/C (second compound 0.00949 µM, first compound 0.0316 µM) 71.4% | viability, T/C (second compound 0.00949 µM, first compound 0.1 µM) 49.3% | viability, T/C (second compound 0.00949 µM, first compound 0.316 µM) 40.6% | viability, T/C (second compound 0.00949 µM, first compound 1 µM) 31.8% | viability, T/C (second compound 0.00949 µM, first compound 3.16 µM) 24% | viability, T/C (second compound 0.00949 µM, first compound 10 µM) 19% | viability, T/C (second compound 0.03 µM, first compound 0.0316 µM) 46.5% | viability, T/C (second compound 0.03 µM, first compound 0.1 µM) 40.6% | viability, T/C (second compound 0.03 µM, first compound 0.316 µM) 36.9% | viability, T/C (second compound 0.03 µM, first compound 1 µM) 24.6% | viability, T/C (second compound 0.03 µM, first compound 3.16 µM) 16.8% | viability, T/C (second compound 0.03 µM, first compound 10 µM) 20.9% | viability, T/C (second compound 0.0949 µM, first compound 0.0316 µM) 37.9% | viability, T/C (second compound 0.0949 µM, first compound 0.1 µM) 32.6% | viability, T/C (second compound 0.0949 µM, first compound 0.316 µM) 27.4% | viability, T/C (second compound 0.0949 µM, first compound 1 µM) 20.6% | viability, T/C (second compound 0.0949 µM, first compound 3.16 µM) 13.9% | viability, T/C (second compound 0.0949 µM, first compound 10 µM) 17.9% | viability, T/C (second compound 0.3 µM, first compound 0.0316 µM) 37.1% | viability, T/C (second compound 0.3 µM, first compound 0.1 µM) 29.9% | viability, T/C (second compound 0.3 µM, first compound 0.316 µM) 28.8% | viability, T/C (second compound 0.3 µM, first compound 1 µM) 19.9% | viability, T/C (second compound 0.3 µM, first compound 3.16 µM) 18.4% | viability, T/C (second compound 0.3 µM, first compound 10 µM) 16%
439 nM: IC50 (second compound 0.003 µM)
124 nM: IC50 (second compound 0.00949 µM)
1880 nM: IC50 (second compound 0.000949 µM)

NC1c2ccccc2OC12CCN(c1cnc3c(N4CCCc5ncccc54)n[nH]c3n1)CC2 (centres undefined) + C=CC(=O)N1CCN(c2nc(OCC3CCCN3C)nc3c(F)c(-c4nc(N)cc(C)c4C(F)(F)F)c(Cl)cc23)C(C)C1
< 31.6 nM: IC50 (second compound 0.00316 µM) | IC50 (second compound 0.01 µM) | IC50 (second compound 0.0316 µM) | IC50 (second compound 0.1 µM) | IC50 (second compound 0.316 µM) | IC50 (second compound 1 µM)
active: viability, T/C (second compound 0.00316 µM, first compound 3.16 µM) 9.04% | viability, T/C (second compound 0.00316 µM, first compound 10 µM) 8.74% | viability, T/C (second compound 0.01 µM, first compound 10 µM) 10.8% | viability, T/C (second compound 0.0316 µM, first compound 3.16 µM) 10.3% | viability, T/C (second compound 0.0316 µM, first compound 10 µM) 7.74% | viability, T/C (second compound 0.1 µM, first compound 1 µM) 10.3% | viability, T/C (second compound 0.1 µM, first compound 3.16 µM) 9.12% | viability, T/C (second compound 0.1 µM, first compound 10 µM) 8.09% | viability, T/C (second compound 0.316 µM, first compound 1 µM) 10.5% | viability, T/C (second compound 0.316 µM, first compound 3.16 µM) 6.82% | viability, T/C (second compound 0.316 µM, first compound 10 µM) 8.51% | viability, T/C (second compound 1 µM, first compound 1 µM) 9.35% | viability, T/C (second compound 1 µM, first compound 3.16 µM) 10.7% | viability, T/C (second compound 1 µM, first compound 10 µM) 5.7%
inactive: viability, T/C (second compound 0.00316 µM, first compound 0.0316 µM) 45.5% | viability, T/C (second compound 0.00316 µM, first compound 0.1 µM) 30.2% | viability, T/C (second compound 0.00316 µM, first compound 0.316 µM) 15% | viability, T/C (second compound 0.00316 µM, first compound 1 µM) 13.9% | viability, T/C (second compound 0.01 µM, first compound 0.0316 µM) 34.9% | viability, T/C (second compound 0.01 µM, first compound 0.1 µM) 22.6% | viability, T/C (second compound 0.01 µM, first compound 0.316 µM) 11.9% | viability, T/C (second compound 0.01 µM, first compound 1 µM) 11.9% | viability, T/C (second compound 0.01 µM, first compound 3.16 µM) 9.09% | viability, T/C (second compound 0.0316 µM, first compound 0.0316 µM) 30.6% | viability, T/C (second compound 0.0316 µM, first compound 0.1 µM) 18.5% | viability, T/C (second compound 0.0316 µM, first compound 0.316 µM) 12.2% | viability, T/C (second compound 0.0316 µM, first compound 1 µM) 10.9% | viability, T/C (second compound 0.1 µM, first compound 0.0316 µM) 30.8% | viability, T/C (second compound 0.1 µM, first compound 0.1 µM) 15.1% | viability, T/C (second compound 0.1 µM, first compound 0.316 µM) 11% | viability, T/C (second compound 0.316 µM, first compound 0.0316 µM) 28.3% | viability, T/C (second compound 0.316 µM, first compound 0.1 µM) 14.4% | viability, T/C (second compound 0.316 µM, first compound 0.316 µM) 11.2% | viability, T/C (second compound 1 µM, first compound 0.0316 µM) 29.5% | viability, T/C (second compound 1 µM, first compound 0.1 µM) 15.3% | viability, T/C (second compound 1 µM, first compound 0.316 µM) 10.8%
